Experimental data from ChEMBL document CHEMBL3885881, “DrugMatrix”.

Species: Rattus norvegicus
Assay: DrugMatrix - Regimen: Daily Repeat
Assay type: toxicity, organism-based, Sprague-Dawley
Design: regimen Daily Repeat, gender Male, age 6-8 weeks
Settings: in vivo, po, route oral GAVAGE, dose level Low; for ABSOLUTE BASOPHIL / ABSOLUTE EOSINOPHIL / ABSOLUTE LYMPHOCYTE / ABSOLUTE MONOCYTE / ABSOLUTE SEGMENTED NEUTROPHIL / BASOPHIL / EOSINOPHIL / ERYTHROCYTE COUNT / HEMATOCRIT / HEMOGLOBIN / LEUKOCYTE COUNT / LYMPHOCYTE / MEAN CORPUSCULAR HEMOGLOBIN / MEAN CORPUSCULAR HEMOGLOBIN CONCENTRATION / MEAN CORPUSCULAR VOLUME / MONOCYTE / NEUTROPHIL / NUCLEATED RED BLOOD CELLS / PLATELET COUNT: tissue Blood; for ALANINE AMINOTRANSFERASE / ALBUMIN / ALKALINE PHOSPHATASE / ASPARTATE AMINOTRANSFERASE / BLOOD UREA NITROGEN / CARBON DIOXIDE / CHLORIDE / CHOLESTEROL / CREATINE PHOSPHOKINASE / CREATININE / GLUCOSE / LACTATE DEHYDROGENASE / LIPASE / PHOSPHORUS / POTASSIUM / SODIUM / TOTAL BILIRUBIN / TOTAL PROTEIN / URIC ACID: tissue Plasma
[1] = 3 mg/kg, 72 h, time 3 day, vehicle .5 % CMC
[2] = 3 mg/kg, 120 h, time 5 day, vehicle .5 % CMC
[3] = 70 mg/kg, 72 h, time 3 day, vehicle 100 % WATER
[4] = 70 mg/kg, 120 h, time 5 day, vehicle 100 % WATER

With `C=CC[C@@H]1/C=C(\C)C[C@H](C)C[C@H](OC)[C@H]2O[C@@](O)(C(=O)C(=O)N3CCCC[C@H]3C(=O)O[C@H](/C(C)=C/[C@@H]3CC[C@@H](O)[C@H](OC)C3)[C@H](C)[C@@H](O)CC1=O)[C@H](C)C[C@@H]2OC` [TACROLIMUS ANHYDROUS] the “ABSOLUTE BASOPHIL” value [1] was 0 CELLS/uL, the “ABSOLUTE EOSINOPHIL” value [1] was 115.33 CELLS/uL and the “ABSOLUTE LYMPHOCYTE” value [1] was 12942.67 CELLS/uL. The “ABSOLUTE MONOCYTE” value [1] was 191 CELLS/uL, the “ABSOLUTE SEGMENTED NEUTROPHIL” value [1] was 1684.33 CELLS/uL and the BASOPHIL [1] was 0%. The EOSINOPHIL [1] was 0.67%, the “ERYTHROCYTE COUNT” value [1] was 5.73 x10E6/uL and the HEMATOCRIT [1] was 36.53%. The HEMOGLOBIN [1] was 13.97 G/DL, the “LEUKOCYTE COUNT” value [1] was 14.93 x10E3/uL and the LYMPHOCYTE [1] was 86.67%. For the same compound, the “MEAN CORPUSCULAR HEMOGLOBIN” value [1] was 24.37 pg, the “MEAN CORPUSCULAR HEMOGLOBIN CONCENTRATION” value [1] was 38.27 G/DL and the “MEAN CORPUSCULAR VOLUME” value [1] was 63.77 fL. For the same compound, the MONOCYTE [1] was 1.33%, the NEUTROPHIL [1] was 11.33% and the “NUCLEATED RED BLOOD CELLS” value [1] was 0 /100WBC. The “PLATELET COUNT” value [1] was 1252.33 x10E3/uL, the “ALANINE AMINOTRANSFERASE” value [1] was 50.67 u/L and the ALBUMIN [1] was 4.1 G/DL. The “ALKALINE PHOSPHATASE” value [1] was 348.33 u/L, the “ASPARTATE AMINOTRANSFERASE” value [1] was 75.67 u/L and the “BLOOD UREA NITROGEN” value [1] was 16.33 mg/dL. For the same compound, the “CARBON DIOXIDE” value [1] was 31.67 mmol/L, the CHLORIDE [1] was 99.33 MEQ/L and the CHOLESTEROL [1] was 79 mg/dL. The “CREATINE PHOSPHOKINASE” value [1] was 194.33 u/L, the CREATININE [1] was 0.26 mg/dL and the GLUCOSE [1] was 149.33 mg/dL. For the same compound, the “LACTATE DEHYDROGENASE” value [1] was 133.33 u/L, the LIPASE [1] was 9.33 u/L and the PHOSPHORUS [1] was 12.63 mg/dL. The POTASSIUM [1] was 6.77 MEQ/L, the SODIUM [1] was 144.97 MEQ/L and the “TOTAL BILIRUBIN” value [1] was 0.2 mg/dL. The “TOTAL PROTEIN” value [1] was 5.83 G/DL, the “URIC ACID” value [1] was 1.67 mg/dL and the “ABSOLUTE BASOPHIL” value [2] was 0 CELLS/uL. The “ABSOLUTE EOSINOPHIL” value [2] was 0 CELLS/uL, the “ABSOLUTE LYMPHOCYTE” value [2] was 15415.33 CELLS/uL and the “ABSOLUTE MONOCYTE” value [2] was 188 CELLS/uL. For the same compound, the “ABSOLUTE SEGMENTED NEUTROPHIL” value [2] was 1663.33 CELLS/uL, the BASOPHIL [2] was 0% and the EOSINOPHIL [2] was 0%. The “ERYTHROCYTE COUNT” value [2] was 5.95 x10E6/uL, the HEMATOCRIT [2] was 36.57% and the HEMOGLOBIN [2] was 14.1 G/DL. For the same compound, the “LEUKOCYTE COUNT” value [2] was 17.27 x10E3/uL, the LYMPHOCYTE [2] was 89.33% and the “MEAN CORPUSCULAR HEMOGLOBIN” value [2] was 23.77 pg. The “MEAN CORPUSCULAR HEMOGLOBIN CONCENTRATION” value [2] was 38.57 G/DL, the “MEAN CORPUSCULAR VOLUME” value [2] was 61.53 fL and the MONOCYTE [2] was 1%. The NEUTROPHIL [2] was 9.67%, the “NUCLEATED RED BLOOD CELLS” value [2] was 0 /100WBC and the “PLATELET COUNT” value [2] was 1336 x10E3/uL. The “ALANINE AMINOTRANSFERASE” value [2] was 51.33 u/L, the ALBUMIN [2] was 4.23 G/DL and the “ALKALINE PHOSPHATASE” value [2] was 303 u/L. The “ASPARTATE AMINOTRANSFERASE” value [2] was 80 u/L, the “BLOOD UREA NITROGEN” value [2] was 17 mg/dL and the “CARBON DIOXIDE” value [2] was 27.67 mmol/L. The CHLORIDE [2] was 101.67 MEQ/L, the CHOLESTEROL [2] was 81 mg/dL and the “CREATINE PHOSPHOKINASE” value [2] was 231 u/L. The CREATININE [2] was 0.2 mg/dL, the GLUCOSE [2] was 164 mg/dL and the “LACTATE DEHYDROGENASE” value [2] was 171.67 u/L. It also gave an LIPASE [2] of 9.33 u/L, a PHOSPHORUS [2] of 13.2 mg/dL and a POTASSIUM [2] of 6.36 MEQ/L. For the same compound, the SODIUM [2] was 144.37 MEQ/L, the “TOTAL BILIRUBIN” value [2] was 0.2 mg/dL and the “TOTAL PROTEIN” value [2] was 6.13 G/DL. For the same compound, the “URIC ACID” value [2] was 1.73 mg/dL.

`CN(C)CCCN1c2ccccc2CCc2ccc(Cl)cc21` [CLOMIPRAMINE] was tested, and the “ABSOLUTE BASOPHIL” value [3] was 0 CELLS/uL, the “ABSOLUTE EOSINOPHIL” value [3] was 0 CELLS/uL and the “ABSOLUTE LYMPHOCYTE” value [3] was 11511.33 CELLS/uL. For the same compound, the “ABSOLUTE MONOCYTE” value [3] was 50 CELLS/uL, the “ABSOLUTE SEGMENTED NEUTROPHIL” value [3] was 672 CELLS/uL and the BASOPHIL [3] was 0%. For the same compound, the EOSINOPHIL [3] was 0%, the “ERYTHROCYTE COUNT” value [3] was 5.82 x10E6/uL and the HEMATOCRIT [3] was 36.17%. The HEMOGLOBIN [3] was 14.27 G/DL, the “LEUKOCYTE COUNT” value [3] was 12.23 x10E3/uL and the LYMPHOCYTE [3] was 94%. For the same compound, the “MEAN CORPUSCULAR HEMOGLOBIN” value [3] was 24.53 pg, the “MEAN CORPUSCULAR HEMOGLOBIN CONCENTRATION” value [3] was 39.47 G/DL and the “MEAN CORPUSCULAR VOLUME” value [3] was 62.17 fL. For the same compound, the MONOCYTE [3] was 0.33%, the NEUTROPHIL [3] was 5.67% and the “NUCLEATED RED BLOOD CELLS” value [3] was 0.33 /100WBC. The “ALANINE AMINOTRANSFERASE” value [3] was 52.33 u/L, the ALBUMIN [3] was 4.17 G/DL and the “ALKALINE PHOSPHATASE” value [3] was 458.67 u/L. The “ASPARTATE AMINOTRANSFERASE” value [3] was 99 u/L, the “BLOOD UREA NITROGEN” value [3] was 15.67 mg/dL and the “CARBON DIOXIDE” value [3] was 24.67 mmol/L. For the same compound, the CHLORIDE [3] was 101 MEQ/L, the CHOLESTEROL [3] was 73 mg/dL and the “CREATINE PHOSPHOKINASE” value [3] was 853.67 u/L. For the same compound, the CREATININE [3] was 0.22 mg/dL, the “LACTATE DEHYDROGENASE” value [3] was 317.67 u/L and the LIPASE [3] was 9 u/L. It also gave a PHOSPHORUS [3] of 13.47 mg/dL, a POTASSIUM [3] of 6.22 MEQ/L and an SODIUM [3] of 146.57 MEQ/L. The “TOTAL BILIRUBIN” value [3] was 0.27 mg/dL, the “TOTAL PROTEIN” value [3] was 6.07 G/DL and the “URIC ACID” value [3] was 1.93 mg/dL. The “ABSOLUTE BASOPHIL” value [4] was 0 CELLS/uL, the “ABSOLUTE EOSINOPHIL” value [4] was 39.67 CELLS/uL and the “ABSOLUTE LYMPHOCYTE” value [4] was 12212 CELLS/uL. The “ABSOLUTE MONOCYTE” value [4] was 206.67 CELLS/uL, the “ABSOLUTE SEGMENTED NEUTROPHIL” value [4] was 1075 CELLS/uL and the BASOPHIL [4] was 0%. The EOSINOPHIL [4] was 0.33%, the “ERYTHROCYTE COUNT” value [4] was 6.52 x10E6/uL and the HEMATOCRIT [4] was 41.7%. For the same compound, the HEMOGLOBIN [4] was 15.97 G/DL, the “LEUKOCYTE COUNT” value [4] was 13.53 x10E3/uL and the LYMPHOCYTE [4] was 90.33%. The “MEAN CORPUSCULAR HEMOGLOBIN” value [4] was 24.53 pg, the “MEAN CORPUSCULAR HEMOGLOBIN CONCENTRATION” value [4] was 38.27 G/DL and the “MEAN CORPUSCULAR VOLUME” value [4] was 64.07 fL. The MONOCYTE [4] was 1.33%, the NEUTROPHIL [4] was 8% and the “NUCLEATED RED BLOOD CELLS” value [4] was 1 /100WBC. The “ALANINE AMINOTRANSFERASE” value [4] was 54 u/L, the ALBUMIN [4] was 4.67 G/DL and the “ALKALINE PHOSPHATASE” value [4] was 417.67 u/L. For the same compound, the “ASPARTATE AMINOTRANSFERASE” value [4] was 75.33 u/L, the “BLOOD UREA NITROGEN” value [4] was 13.33 mg/dL and the “CARBON DIOXIDE” value [4] was 27.67 mmol/L. For the same compound, the CHLORIDE [4] was 100.33 MEQ/L, the CHOLESTEROL [4] was 74 mg/dL and the “CREATINE PHOSPHOKINASE” value [4] was 213 u/L. The CREATININE [4] was 0.2 mg/dL, the “LACTATE DEHYDROGENASE” value [4] was 196.67 u/L and the LIPASE [4] was 8.67 u/L. The PHOSPHORUS [4] was 12.07 mg/dL, the POTASSIUM [4] was 6.7 MEQ/L and the SODIUM [4] was 146.33 MEQ/L. The “TOTAL BILIRUBIN” value [4] was 0.2 mg/dL, the “TOTAL PROTEIN” value [4] was 6.57 G/DL and the “URIC ACID” value [4] was 1.57 mg/dL.
